{"source": "patent US20190227072A1", "about": "“Biomarkers for Carcinogenesis and Uses Thereof” (GEORGETOWN UNIVERSITY, priority 2016, published 2019)", "key": {"[1]": {"tested_on": "Primary human hepatocytes", "assay": "FACS detection of DHHεdA in nuclei of EH-treated primary human hepatocytes", "format": "cell-based", "conditions": "300 μM EH", "experimental": "Primary human hepatocytes (#HUFS1M, Lot#HUM4132, Triangle Research Labs, Durham, N.C.) were cultured in hepatocyte media (#5201, ScienCell Research Laboratories, San Diego, Calif.) until 85-90% confluent. Cells were then treated with a final concentration of 300 μM EH dissolved in 70% EtOH, added to the culture media. The cells were collected at the designated time points following EH treatment: 0, 4, 8, 12 and 24 h. The nuclei were extracted using Nuclei EZ Prep Nuclei Isolation Kit (#NUC-101, Sigma-Aldrich, St. Louis, Mo.) and fixed with 3.7% formaldehyde for 10 min. The nuclei were then prepared for FACS analysis using the method shown previously.\nThe geometric mean of the fluorescence intensity of Alexa Fluor 488-labeled DHHεdA positive cells was measured using FACS. The output values of triplicate control and EH treatment groups (see above) were averaged and the standard deviation was calculated using Excel. Additionally, a Student's t-test was performed to determine significance by comparing the triplicate values for the control group to those of the EH treated group for each individual time point of 4, 8, 12, and 24 h."}, "HepG2 cells": {"tested_on": "HepG2 cells", "assay": "DHHεdA formation in HepG2 cellular DNA after EH or AA treatment, LC-MS/MS-MRM", "format": "cell-based, human", "conditions": "24 h", "experimental": "HepG2 cells (#HB-8065, ATCC, Manassas, Va.) were grown in complete DMEM (#10-013, Corning Life Sciences, Tewksbury, Mass.) until 85-90% confluent. Cells were treated with a final concentration of 100 μM or 300 μM of either arachidonic acid (AA) or EH solubilized in 70% EtOH for 24 h. Cells were then scraped down in media and transferred to a centrifuge tube and spun for 3000 rpm for 5 min. The pellet was washed 2× with 1×PBS, centrifuging between washes. DNA was then isolated from the cells and prepared for LC-MS/MS-MRM, after enzymatic hydrolysis as described above.\nDNA was isolated by a QIAGEN Blood and Cell Culture DNA Maxi Kit (#13362, QIAGEN Inc., Valencia, Calif.) using the protocol recommended by the manufacturer. For hydrolysis, dry DNA (50 to 1000 μg) was dissolved in 5 mM magnesium chloride and 0.5 mM GSH solution (1 mL per 1 mg of DNA), then 50 fmol of [^15N5]-DHHεdA 1,2 and 50 fmol of [^15N5]-DHHεdA 3,4 were added as internal standards. DNA was hydrolyzed by incubation with DNase I (1300 units per mg of DNA, #D4527-40KU, Sigma-Aldrich, St. Louis, Mo.) for 30 min at 37° C., followed by a second addition of DNase I (1300 units per mg of DNA) and incubation for an additional 10 min at 37° C. Finally, phosphodiesterase I (0.06 units per mg DNA, #P3243-1VL, Sigma-Aldrich, St. Louis, Mo.), alkaline phosphatase (380 units per mg DNA, #10 108 146 001, Roche Diagnostic GmbH, Mannheim, Germany) and adenosine deaminase (0.5 units, #LS009043, Worthington Biochemical Corporation, Lakewood, N.J.) were added and the sample was incubated for 60 min at 37° C. After hydrolysis, a small portion of the hydrolysate was saved for further T quantification, and the remaining sample was purified using Phenomenex Strata-X 33μ 30 mg/1 mL polymeric reverse phase solid phase extraction columns (#8B-S100-TAK, Phenomenex, Torrance, Calif.). Before loading, samples columns were washed by ACN (3×1 mL) and stabilized by 25 mM ammonium formate pH=4.00 (3×1 mL). After loading, DNA hydrolysate columns were washed by 2.5% ACN in 25 mM ammonium formate pH=4.00 (1×1 mL), 5% ACN in 25 mM ammonium formate pH=4.00 (1×1 mL), followed by DHHεdA collection by 30% ACN in 25 mM ammonium formate pH=4.00 (1×1 mL). The DHHεdA fraction was dried using a SpeedVac rotary concentrator, re-dissolved in 400 μL 1:1 water:ACN, transferred to HPLC vials, dried and kept at −20° C. Before quantification, samples were dissolved in 60 μL of water and 37 μL was injected on LC-MS.\nQuantification was carried out on a SCIEX 6500 QTRAP triple quadrupole mass spectrometer (AB Sciex LLC, Framingham, Mass.) interfaced with a Waters ACQUITY UPLC liquid chromatography system equipped with Waters ACQUITY UPLC BEH C18 50×2.1 mm, 1.7 μm particle size column (Waters Corporation, Milford, Mass.). The separation of adducts was performed isocratically by eluting with 13.5% ACN, 1 mM ammonium formate buffer over 6.5 min using 0.5 mL/min flow rate at 40° C., followed by 100% ACN wash. The ESI source operated in positive mode. The MRM experiment was performed using ion transitions of 406.2-290.2 m/z (DHHεdA) and 411.2-295.1 m/z ([^15N5]-DHHεdA) with CE of 28 eV for quantification, and those of 406.2-160.1 m/z (DHHεdA) and 411.2-165.0 m/z ([^15N5]-DHHεdA) with a CE of 76 eV were used for structural confirmation. All other parameters were optimized to achieve maximum signal intensity. Calibration curves were constructed for two HPLC resolved peaks before each analysis using standard solutions of DHHεdA and [^15N5]-DHHεdA. A constant concentration of [^15N5]-DHHεdA (1 fmol/μL) was used with different concentrations of DHHεdA (3.3 amol/μL-65 fmol/μL) and analyzed using 37 μL injections by LC-MS/MS-MRM. The standard curves were linear in the range from 0.37 to 800 fmol of DHHεdA on column for both peaks (1/x weighting; r^2=0.9998 and r^2=0.9984 for both LC resolved pairs of DHHεdA stereoisomers 1,2 and 3,4 respectively). […]"}, "Xpa−/− mice [2]": {"tested_on": "Xpa−/− mice", "assay": "72-week tumor bioassay of Xpa−/− mice fed antioxidant diets", "format": "in vivo", "conditions": "72 weeks on diet, control diet 100%", "text": "C3H/HeN.Xpa^−/− mice were created by crossing C57/B6. Xpa^−/− mice with C3H/HeN mice. The resulting heterozygous mice were then backcrossed to C3H mice for five generations. Mice homogeneous for the Xpa-null allele on a C3H background were subsequently generated by brother-sister mating. All of the mice were housed in a temperature-controlled, light-regulated space with 12-hour light and dark cycles and were given unrestricted access to food and water throughout the experiments. […] The animals were fed with AIN-76A powder diets obtained from Dyets, Inc. (Bethlehem, Pa.) at the age of 4 weeks; four types of diets (control, α-lipoic acid, Theaphenon E and vitamin-E) were used in this study. The only difference between the diets is the sucrose content to be replaced by the antioxidant (Table 1: the doses of the antioxidants, α-lipoic acid (2 g/kg), Theaphenon E (20 g/kg) and vitamin E (1.8 g/kg)), were selected according to recent studies, respectively. The nutrition for all the four diets was calculated within the range of 3694 to 3766 kcal/kg. (n=6-7 for time dependent DNA adduct assay, n=18-19 for tumor bioassay after 72 weeks under different diets (see Table 4)). […] Xpa^−/− mice were fed with four types of diets (control, Theaphenon E, α-lipoic acid, and vitamin E) for 72 weeks."}, "Xpa−/− mice [3]": {"tested_on": "Xpa−/− mice", "assay": "32-week bioassay of Xpa−/− mice fed antioxidant diets, γ-OHPdG by LC-MS/MS", "format": "in vivo", "conditions": "for liver γ-OHPdG levels: antioxidant diet vs control diet, liver DNA, LC-MS/MS; for γ-OHPdG levels in the lungs: antioxidant diet, lung (non-target organ)", "text": "All of the mice were housed in a temperature-controlled, light-regulated space with 12-hour light and dark cycles and were given unrestricted access to food and water throughout the experiments. […] The animals were fed with AIN-76A powder diets obtained from Dyets, Inc. (Bethlehem, Pa.) at the age of 4 weeks; four types of diets (control, α-lipoic acid, Theaphenon E and vitamin-E) were used in this study. The only difference between the diets is the sucrose content to be replaced by the antioxidant (Table 1: the doses of the antioxidants, α-lipoic acid (2 g/kg), Theaphenon E (20 g/kg) and vitamin E (1.8 g/kg)), were selected according to recent studies, respectively. The nutrition for all the four diets was calculated within the range of 3694 to 3766 kcal/kg. […] The liver tissues were dissected and kept at −80° C. until usage for DNA isolation.\nDNA (100-500 μg) was dissolved in 5 mM magnesium chloride (800 μL per mg DNA) and spiked with 100 fmol of [^13C10,^15N5]-γ-OHPdG and 50 fmol of [^13C10,^15N5]−/− OHPdG. Enzymatic hydrolysis was performed by incubation with DNase I (1300 units/mg DNA) at 37° C. for 30 min followed by a second addition of DNase I (1300 units/mg DNA). After an additional 10 min at 37° C., alkaline phosphatase (380 units/mg DNA), phosphodiesterase I (0.06 units/mg DNA) and adenosine deaminase (0.5 units) were added, and the mixture was incubated for 1 h. After digestion a small aliquot of hydrolysate was used for dG quantification and the remaining digest was purified by solid phase extraction (SPE) using polymeric C18, 30 mg/1 mL, Strata-X columns (Phenomenex, Inc., Torrance, Calif.). Prior to use, the columns were conditioned by ACN (3×1 mL) and 25 mM ammonium formate buffer pH=4 (3×1 mL). After sample loading, the columns were washed with 2.5% ACN in 25 mM ammonium formate buffer pH=4 (1×1 mL). Then, γ-OHPdG adducts were collected by eluting with 5% ACN in 25 mM ammonium formate buffer pH=4 (1×1 mL). Samples were dried over vacuum using a SpeedVac and kept at −80° C. Before quantification assay samples were reconstituted with 50 μl of water, and 37 μL of sample was injected onto LC-MS/MS.\nDetection and quantification of γ-OHPdG adducts was carried on AB SCIEX 6500 QTrap triple quadrupole mass spectrometer (SCIEX, Framingham, Mass.) coupled with an ACQUITY UPLC liquid chromatography system (Waters Corporation, Milford, Mass.) equipped with 50×2.1 mm, 1.7 m particle size C18 column (Waters ACQUITY UPLC BEH C18). The separation of adducts was performed isocratically by eluting with 3% ACN, 1 mM ammonium formate buffer over 3.5 min using 0.5 mL/min flow rate at 40° C., followed by 100% ACN wash. The ESI source operated in positive mode. The multiple reaction monitoring (MRM) experiment was performed using ion transitions of 324.2-208.1 m/z (γ-OHPdG) and 339.2-218.1 m/z ([^13C10,^15N5]-γ-OHPdG) with a collision energy (CE) of 20 eV for quantification, and those of 324.2-190.1 m/z (γ-OHPdG) and 339.2-200.1 m/z ([^13C10,^15N5]-γ-OHPdG) with a CE of 47 eV for structural confirmation. All other parameters were optimized to achieve maximum signal intensity."}}, "note": "“Also recorded” adds a separate entry of the source."}
{"molecule": "CCCCCC(O)C1OC1C=O", "note": "(centres unmarked) [EH, 2,3-epoxy-4-hydroxynonanal]", "values": [{"measurement": "cell death", "setting": "[1]; 24 h", "result": "less than 20%"}, {"measurement": "mean fluorescence intensity of DHHεdA in nuclei (FACS, 3C9C9)", "setting": "[1]; 4, 8, 12 and 24 h vs control", "result": "significant difference between control and EH treated cells for every time point"}, {"measurement": "DHHεdA peak 1", "setting": "HepG2 cells; human, 100 μM", "result": 14.1, "unit": "adducts/T × 10^9"}, {"measurement": "DHHεdA peak 2", "setting": "HepG2 cells; human, 100 μM", "result": 139.4, "unit": "adducts/T × 10^9"}, {"measurement": "Total DHHεdA", "setting": "HepG2 cells; human, 100 μM", "result": 153.5, "unit": "adducts/T × 10^9"}, {"measurement": "DHHεdA peak 1", "setting": "HepG2 cells; human, 300 μM", "result": 186.6, "unit": "adducts/T × 10^9"}, {"measurement": "DHHεdA peak 2", "setting": "HepG2 cells; human, 300 μM", "result": 2043.8, "unit": "adducts/T × 10^9"}, {"measurement": "Total DHHεdA", "setting": "HepG2 cells; human, 300 μM", "result": 2230.4, "unit": "adducts/T × 10^9"}]}
{"molecule": "O=C(O)CCCCC1CCSS1", "note": "(stereo not drawn) [α-lipoic acid]", "values": [{"measurement": "HCC incidence", "setting": "Xpa−/− mice [2]", "result": 65, "unit": "%"}, {"measurement": "liver γ-OHPdG levels", "setting": "Xpa−/− mice [3]", "result": "effectively decreased; also recorded: significant decrease"}, {"measurement": "γ-OHPdG levels in the lungs", "setting": "Xpa−/− mice [3]", "result": "no significant changes"}]}
{"molecule": "vitamin E", "values": [{"measurement": "HCC incidence", "setting": "Xpa−/− mice [2]", "result": "no significant effect"}, {"measurement": "liver γ-OHPdG levels", "setting": "Xpa−/− mice [3]", "result": "but not vitamin E, effectively decreased; also recorded: significant decrease"}, {"measurement": "γ-OHPdG levels in the lungs", "setting": "Xpa−/− mice [3]", "result": "no significant changes"}]}
{"molecule": "CCCCC/C=C\\C/C=C\\C/C=C\\C/C=C\\CCCC(=O)O", "note": "[AA, arachidonic acid]", "values": [{"measurement": "DHHεdA peak 1", "setting": "HepG2 cells; HepG2, low dose (100 μM)", "result": "bdl"}, {"measurement": "DHHεdA peak 2", "setting": "HepG2 cells; HepG2, low dose (100 μM)", "result": "bdl"}, {"measurement": "Total DHHεdA", "setting": "HepG2 cells; HepG2, low dose (100 μM)", "result": "bdl"}]}
